For three compounds, inhibition and GI50 results are on record in paper PMC10893631, “Receptor-based pharmacophore modeling, molecular docking, synthesis and biological evaluation of novel VEGFR-2, FGFR-1, and BRAF multi-kinase inhibitors” (BMC Chemistry, 2024).

The term GI50 denotes the concentration giving 50% growth inhibition. Higher therefore signals lower sensitivity of the cells.

One assay concerns the target T1, VEGFR-2 (Homo sapiens, UniProt P35968).
T1 construct: purchased BPS Biosciences 40325
Description: VEGFR-2 kinase assay kit (BPS), Kinase-Glo Max luminescence. The class given is biochemical. As to conditions: VEGFR-2, single dose 10 µM, duplicate, mean ± SD. As for the experimental part: 2. Biochemical kinase assay procedure
The inhibitory activity against different kinases was determined using kinase kits […]
from BPS Biosciences and kinase-Glo Max luminescence kinase assay kit (Promega).
The assay was carried out according to the protocol provided by the manufacturer. A stock solution of the synthesized derivatives in 100% DMSO was prepared. Subsequently, the compounds were diluted to 10% DMSO.
A master mixture was prepared according to the number of wells. For VEGFR-2 and FGFR-1 biochemical assays each well include 6 μl of 5x Kinase Buffer 1 + 1 μl of 500 μM ATP + 1 μl of PTK Substrate (Poly-Glu,Tyr 4:1) (10 mg/ml) + 17 μl of distilled water. For BRAF assay each well include 6 μl of 5x Kinase Buffer 1 + 1 μl of ATP (500 μM) + 10 μl of 5X Raf substrate + 8 μl of distilled water. 1x Kinase buffer 1 was prepared by mixing 600 μl of 5x Kinase Buffer 1 with 2400 μl water to give 3 mL. Kinases were thawed on ice and were diluted with 1x Kinase Buffer 1.
To start the biochemical reaction, 25 µL of the master mixture was added to each well in 96 well plate. 5 µL of 10% DMSO was added to positive control wells and blank wells. 5 µL of diluted inhibitor was added to each well labelled with the test inhibitor so that the final concentration of DMSO is 1% in all reactions. Then 20 µL of (1 ng / μl) in case of VEGFR-2 and FGFR-1 or (2.5 ng/μl) in case of BRAF in 1x kinase buffer was added to positive control wells and wells labelled with the inhibitor, while 20 µL 1x kinase buffer 1 was added to the […]
The plate was incubated at 30 °C for 45 min. Subsequently, 50 μl of Kinase-Glo Max luminescence reagent was added to each well and the plate was covered with aluminum foil and incubated at room temperature 15 min. Finally, the luminescence was recorded using multimode microplate reader. Kinase activity assays were performed in duplicate at each […]
The luminescence data were analyzed as follows. The difference between luminescence intensities in the absence of kinase (Lut) and in the presence of kinase (Luc) was defined as 100 % activity (Lut – Luc). Using luminescence signal (Lu) in the presence of the compound, % activity was calculated as: % activity = {(Lut - Lu)/(Lut - Luc)}×100%. The […]
concentration of the test compounds required to reduce the kinase activity by 50% was determined from dose-response curves and recorded as their IC50. […]
For orientation: Kinase-Glo reads ATP consumption through a luciferase reaction.

For assay [1], the system named is NCI panel of 60 tumor cell lines. The experiment in a line: NCI SRB growth inhibition, whole panel mean (single dose 10 µM / five-dose). The format is cell-based, human. As to conditions: Homo sapiens. How it is done: (§1) Screening of cytotoxic activity against a panel of sixty human tumor cell lines The selected compounds by NCI were evaluated for their anticancer activity in a two- stage process. […] Then, the output from the single dose screen is reported as a mean graph. […] Assay protocol. […] For a typical screening experiment, cells are inoculated into 96 well microtiter plates in 100 µL at plating densities ranging from 5000 to 40,000 cells/well depending on the doubling time of individual cell lines. […] After 24 h, two plates of each cell line are fixed in situ with TCA, to represent a measurement of the cell population for each cell line at the time of drug addition (Tz). The experimental drugs are solubilized in dimethyl sulfoxide at 400-fold the desired final maximum test concentration and stored frozen prior to use. At the time of drug addition, an aliquot of frozen concentrate is thawed and diluted to twice the desired final maximum test concentration with complete medium containing 50 µg/mL gentamicin. Additional four, 10-fold or ½ log serial dilutions are made to provide a total of five drug concentrations plus control. Aliquots of 100 mL of these different drug dilutions are added to the appropriate microtiter wells already containing […] of medium, resulting in the required final drug concentrations. […] For adherent cells, the assay is terminated by the addition of cold TCA. […] The supernatant is discarded, and the plates are washed five times with tap water and air dried. Sulforhodamine B (SRB) solution ([…]) at 0.4% (w/v) in 1% acetic acid is added to each well, and plates are incubated for 10 min at room temperature. After staining, unbound dye is removed by washing five times with 1% acetic acid and the plates are air dried. […] Using the seven absorbance measurements [time zero, (Tz), control growth, (C), and test growth in the presence of drug at the five concentration levels (Ti)], the percentage growth is calculated at each of the drug concentrations levels. Percentage growth inhibition is calculated as: [(Ti Tz)/(C–Tz)] x 100 for concentrations for which Ti>/=Tz and [(Ti-Tz)/Tz] x 100 for concentrations for which Ti < Tz. Three dose response parameters are calculated for each experimental agent. […] The drug concentration resulting in total growth inhibition (TGI) is calculated from Ti = Tz. […] Values are calculated for each of these three parameters if the level of activity is reached; however, if the effect is not reached or is exceeded, the value for that parameter is expressed as greater or less than the maximum or minimum concentration tested.

In a further assay the test system is ACHN. The experiment in a line: NCI SRB growth inhibition (single dose 10 µM / five-dose). As to conditions: Homo sapiens; for inhibition at 10 µM: ACHN (Renal cancer), read-out: GI%. The class given is cell-based, human. How it is done:
as §1

The subject of a further assay is HCT-116. The assay is described as above. The format is cell-based, human. As to conditions: Homo sapiens, HCT-116; for inhibition at 10 µM: read-out: GI%. How it is done: as §1
A further assay relates to HOP-92. The description is as above. The format is cell-based, human. To be noted: Homo sapiens; for inhibition at 10 µM: HOP-92 (Non-small cell lung cancer), read-out: GI%. As for the experimental part:
as §1

Another assay concerns M14. The assay is described as above. To be noted: Homo sapiens; for inhibition at 10 µM: M14 (Melanoma), read-out: GI%. The class given is cell-based, human. How it is done:
as §1

Another assay has as its system MOLT-4. The assay is described as above. The class given is cell-based, human. To be noted: Homo sapiens; for inhibition at 10 µM: MOLT-4 (Leukemia), read-out: GI%. How it is done: as §1
Another assay concerns NCI-H226. The description is as above. The class given is cell-based, human. To be noted: Homo sapiens; for inhibition at 10 µM: NCI-H226 (Non-small cell lung cancer), read-out: GI%. As for the experimental part: as §1
For another assay, the system named is NCI-H322M. The assay is described as above. The class given is cell-based, human. To be noted: Homo sapiens; for inhibition at 10 µM: NCI-H322M (Non-small cell lung cancer), read-out: GI%. How it is done:
as §1

The test system of a further assay is OVCAR-4. The assay is described as above. The class given is cell-based, human. To be noted: Homo sapiens; for inhibition at 10 µM: OVCAR-4 (Ovarian cancer), read-out: GI%. How it is done: as §1
Another assay relates to SN12C. The description is as above. The class given is cell-based, human. To be noted: Homo sapiens; for inhibition at 10 µM: SN12C (Renal cancer), read-out: GI%. How it is done: as §1
The test system of another assay is U251. The description is as above. As to conditions: Homo sapiens, U-251; for inhibition at 10 µM: U251 (CNS cancer), read-out: GI%. The format is cell-based, human. How it is done: as §1
A further assay has as its system UO-31. The assay is described as above. The class given is cell-based, human. To be noted: Homo sapiens; for inhibition at 10 µM: UO-31 (Renal cancer), read-out: GI%. How it is done: as §1
[2] abbreviates: mean over NCI 60 cell lines, > 100% = lethal effect, read-out: mean growth inhibition % (GI%).
The mark [3] stands for this setting: mean over NCI panel of 60 tumor cell lines, read-out: Mean growth inhibition %.

The structures appear in SMILES notation. Like-named read-outs stand apart in the source and are kept apart here. Some results are limits rather than exact numbers.

T1 sequence (P35968 20-1356): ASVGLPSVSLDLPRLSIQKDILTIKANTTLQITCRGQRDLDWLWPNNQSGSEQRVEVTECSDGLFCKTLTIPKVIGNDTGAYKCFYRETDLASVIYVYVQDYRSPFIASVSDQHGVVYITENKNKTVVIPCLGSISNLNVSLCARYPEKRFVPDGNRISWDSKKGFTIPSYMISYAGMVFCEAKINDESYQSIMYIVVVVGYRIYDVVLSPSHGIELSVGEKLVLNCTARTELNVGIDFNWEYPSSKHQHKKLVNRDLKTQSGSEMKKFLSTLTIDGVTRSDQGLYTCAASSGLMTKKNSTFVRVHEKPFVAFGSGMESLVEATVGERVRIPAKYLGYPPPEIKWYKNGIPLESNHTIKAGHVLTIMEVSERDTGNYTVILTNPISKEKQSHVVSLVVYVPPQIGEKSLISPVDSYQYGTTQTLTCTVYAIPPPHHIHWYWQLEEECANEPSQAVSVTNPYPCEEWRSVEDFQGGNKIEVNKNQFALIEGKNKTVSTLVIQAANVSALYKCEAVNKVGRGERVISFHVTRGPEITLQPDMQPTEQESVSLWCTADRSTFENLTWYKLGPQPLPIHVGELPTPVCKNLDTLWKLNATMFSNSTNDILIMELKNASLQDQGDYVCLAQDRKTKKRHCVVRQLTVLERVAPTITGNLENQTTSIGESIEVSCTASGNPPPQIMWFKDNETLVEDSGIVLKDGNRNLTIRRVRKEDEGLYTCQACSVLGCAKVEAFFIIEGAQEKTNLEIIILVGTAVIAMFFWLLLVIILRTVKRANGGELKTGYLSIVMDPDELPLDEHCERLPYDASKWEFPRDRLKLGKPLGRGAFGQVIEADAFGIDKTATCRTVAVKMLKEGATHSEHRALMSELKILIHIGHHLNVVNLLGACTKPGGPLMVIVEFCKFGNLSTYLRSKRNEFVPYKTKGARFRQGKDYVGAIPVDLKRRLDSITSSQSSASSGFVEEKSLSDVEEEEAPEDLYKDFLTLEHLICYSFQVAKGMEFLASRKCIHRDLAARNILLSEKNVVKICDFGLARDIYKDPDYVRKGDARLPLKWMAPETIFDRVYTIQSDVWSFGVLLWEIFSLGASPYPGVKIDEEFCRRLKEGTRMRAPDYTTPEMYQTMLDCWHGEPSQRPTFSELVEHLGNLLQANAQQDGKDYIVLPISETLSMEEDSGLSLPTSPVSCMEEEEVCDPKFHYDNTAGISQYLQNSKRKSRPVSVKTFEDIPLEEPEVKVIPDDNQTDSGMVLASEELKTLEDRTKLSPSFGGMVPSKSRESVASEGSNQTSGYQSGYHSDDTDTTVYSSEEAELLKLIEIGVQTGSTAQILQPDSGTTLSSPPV

As to `COc1cccc(C=NNC(=O)c2ccc3[nH]c(-c4ccccc4)nc3c2)c1O` [8d, N'-(2-hydroxy-3-methoxybenzylidene)-2-phenyl-1H-benzo[d]imidazole-5-carbohydrazide], the inhibition at 10 µM against VEGFR-2 was found to be 53.8 ± 2.62%; in assay [1] (setting [2]), 92.5%; in assay [1] (setting [3]) it was 92.5%; in the assay with ACHN, 83.3%; with HCT-116, 97.4%; in the assay on HOP-92, 68.4%. Moreover, the inhibition at 10 µM was more than 100% in the assay with M14; 65.8% in the assay on MOLT-4; more than 100% in the assay with NCI-H226; 88% in the assay on NCI-H322M; more than 100% in the assay with OVCAR-4; 91.5% with SN12C. In addition, the inhibition at 10 µM was found to be 99.9% in the assay on U251 and 98.5% in the assay on UO-31. Besides, the GI50 amounted to 2620 nM in assay [1] (mean over NCI cancer cell lines, five-dose); 2280 nM in the assay on ACHN (ACHN, Renal cancer, five-dose); 1840 nM with HCT-116; 1580 nM in the assay with HOP-92 (HOP-92, Non-small cell lung cancer, five-dose); 1570 nM in the assay on M14 (M14, Melanoma, five-dose); 2060 nM in the assay with MOLT-4 (MOLT-4, Leukemia, five-dose). Also, the GI50 in the assay on NCI-H226 (NCI-H226, Non-small cell lung cancer, five-dose) stood at 530 nM; in the assay on NCI-H322M (NCI-H322M, Non-small cell lung cancer, five-dose), 1410 nM; in the assay on OVCAR-4 (OVCAR-4, Ovarian cancer, five-dose) it was 1850 nM; with SN12C (SN12C, Renal cancer, five-dose), 2080 nM; with U251 (U251, CNS cancer, five-dose) it was 760 nM; in the assay with UO-31 (UO-31, Renal cancer, five-dose), 2340 nM.
Consider `COc1ccc(OC)c(C=NNC(=O)c2ccc3[nH]c(-c4ccccc4)nc3c2)c1` [8f, N'-(2,5-Dimethoxybenzylidene)-2-phenyl-1H-benzo[d]imidazole-5-carbohydrazide], for which the inhibition at 10 µM at VEGFR-2 was 58.3 ± 2.98%; in assay [1] (setting [2]), 33.7%; in [1] (setting [3]), 33.7%; in the assay with ACHN it was 36.5%; with HCT-116, 52.5%; in the assay on HOP-92 it was 7.1%. Further, the inhibition at 10 µM was 34.4% in the assay on M14; 49.5% with MOLT-4; 49.5% with NCI-H226; 12.3% with NCI-H322M; 37.8% in the assay on OVCAR-4; 35.2% with SN12C. For the same compound, the figures for the inhibition at 10 µM with U251 and in the assay on UO-31 were 20.7% and 54%, respectively.
As for `COc1cc(C=NNC(=O)c2ccc3[nH]c(-c4ccccc4)nc3c2)cc(OC)c1OC` [8g, 2-Phenyl-N'-(3,4,5-trimethoxybenzylidene)-1H-benzo[d]imidazole-5-carbohydrazide], the inhibition at 10 µM is 47.9 ± 3.53% on VEGFR-2; 36% in assay [1] (setting [2]); 36% in [1] (setting [3]); 33.8% with ACHN; 41.6% with HCT-116; less than 5% in the assay on HOP-92. Moreover, the inhibition at 10 µM in the assay on M14 amounted to 43.3%; in the assay with MOLT-4, 21.2%; with NCI-H226, 50.4%; in the assay with NCI-H322M, 15.7%; in the assay on OVCAR-4, 21.9%; with SN12C it was 32.2%. Moreover, the inhibition at 10 µM in the assay on U251 worked out at 42.3%; in the assay with UO-31 it was 45.5%.
